Data set [1] relates to MS strain of HSV-2. The experiment in a line: Primary genital HSV-2 infection of guinea pigs, topical treatment. The conditions noted are these: ACV as 5%. The class given is in vivo. The procedure: The antiviral activity of several compounds in a primary genital HSV-2 infection of guinea pigs was tested. The experiments were placebo-controlled and uninfected animals were treated with each of the preparations to assess skin irritation. Groups treated with 5% Acyclovir were included as positive controls.
Virus and Viral Inoculation. The MS strain of HSV-2 was utilized to infect animals. Female Hartley strain guinea pigs, Charles River Breeding Laboratories, Kingston, NY, weighing 250 to 300 g were inoculated intravaginally with 1.4 x 10^5 plaque forming units of HSV-2 one hour after being swabbed for the removal of vaginal secretions.
Treatment of Guinea Pigs. Groups of ten infected guinea pigs were treated topically, 0.1 ml intravaginally and 0.1 ml on external genital skin, three times daily, approximately every eight hours, for seven days, beginning either 6 hr or 48 hr after HSV inoculation. Groups of three uninfected animals were used to assess toxicity of each preparation.
Simple Collection and Virus Assays. To determine the effect of treatment on vaginal virus replication, swabs of vaginal secretions were obtained on days 1, 3, 5, 7 and 10 after HSV-2 inoculation, placed in a tube containing 2.0 ml of media, vortexed and frozen at -70°C until titrated for HSV-2. When all samples were collected, they were thawed, diluted serially and HSV-2 titers determined using a microtiter CPE assay in rabbit kidney cells. Mean peak virus titers and areas under the virus titer-day curves were calculated and analyzed.
Scoring of External Genital Lesions. To determine the effect of therapy on the development and spread of external genital lesions, lesion severity was scored on a 0-5+ scale through the primary infection (21 days). Mean peak lesion scores and the area under the lesion score-day curves were calculated and analyzed.
Evaluation of Efficacy. The number of animals infected over the number inoculated, lesion score-day areas and virus titer-day areas under the curve, peak lesion scores and peak virus titers between untreated and placebo-treated or placebo-treated and drug-treated animals were compared using the Mann-Whitney U rank sum test. A p-value of 0.05 or less was considered significant.
The base formulation is as defined for the preferred embodiment of the composition for enhancing […] of viral lesions, but without SLS or anesthetic. Acyclovir (ACV) was used as a positive control (i.e., having antiviral activity). Placebo (PBS) treated animals were compared with an untreated control animal. 2A was compared with the untreated animals and placebo-treated animals. ACV groups were compared to the placebo-treated group. All others were compared to 2A.

Data set [2] has as its system HSV-2. Briefly: Inactivation studies: direct inactivation of HSV-2. The conditions noted are these: for concentrations tested at which the compound does not directly inactivate HSV-2: 30 minutes at room temperature, up to highest concentration tested. Set-up: species or system herpes simplex virus type-2. The method, then: (§1) A clinical isolate from a genital lesion of Herpes simplex virus, type (HSV-2), was used.
(§2) Stocks of viruses were grown by infecting MRC-5 cells at multiplicity of 0.01 plaque forming units (PFU) per cell and harvested in maintenance medium. Virus was harvested by three cycles of freezing at -70°C and thawing, followed by centrifugation at 1000 x g at 4°C for 15 minutes to remove cell debris. Resulting virus stocks were aliquoted and frozen at -70°C.
To determine if a test compound directly inactivates HSV-2, 0.5 ml of serial dilutions of the compound to be tested was mixed with 0.5 ml of stock HSV-2 (titer = […]) and incubated at room temperature for 30 minutes. After 30 minutes, the compound-virus mixture was diluted 10,000 fold in maintenance medium and virus recovery was determined by inoculating MRC-5 cells. The cells were graded for cytopathic effect after 24 hr, 48 hr, and 72 hr.

The subject of data set [3] is HSV-2. Briefly: Antiviral studies: inhibition of HSV-2 replication in MRC-5 cells (virus yield). It counts as cell-based, herpes simplex virus type-2. The method, then: as §1, §2
Antiviral activity, i.e., the ability of the compound to inhibit infection or replication of virus in cells, was measured by infecting confluent monolayers of MRC-5 cells in 12 x 100 mm culture tubes at a multiplicity of infection (MOI) of 3.0 plaque forming units (PFU) per cell of HSV-2 by removing the maintenance medium, washing the monolayers three times with phosphate buffered saline (PBS), and adding 0.1 ml of […] suspended in PBS. The multiplicity of infection was calculated by counting the number of viable cells in a duplicate tube and diluting the stock virus to produce a viral inoculum in a volume of 0.1 ml which contained three times the PFUs as the number of cells counted. After a 60 minute absorption period, the inoculum was removed and 4 mls of test compound at appropriate concentrations in maintenance medium or maintenance medium (control) was added. The tubes were incubated at 37°C for an additional 23 hours. At 24 hours post-infection, the medium was removed and the monolayers were washed twice with PBS and frozen and thawed 3 times in 1 ml of maintenance medium. Virus yields were determined by serial end-point titrations in 96-well tissue culture plates containing MRC-5 cells. All experiments were tested in triplicate. 50% end-points were calculated and titers were expressed in TCID 50 units. Antiviral effect was determined by subtracting the difference between the TCID 50s of the test compound and from the TCID 50s of HSV-2 virus stock titrated in the same experiment and calculated in percentages.

Data set [4] has as its system MRC-5 cells. The conditions noted are these: for concentrations exhibiting significant cytotoxicity: 1440 min.
For data set [5], the system named is Vero cells. The experiment in a line: Cytotoxicity assay in Vero cells. It counts as cell-based, green monkey. The method, then:
A continuous line of human embryo lung cells (MRC-5) were grown in Eagle's minimal essential medium (MEM) in Earle's salts supplemented with 2 mM L-glutamine, […] gentamicin, 0.25 mg/ml amphotericin B (Fungisone) ad 10% heat-inactivated fetal calf serum (growth medium). Cells were grown at 37°C in a humidified 5% CO2 atmosphere or in closed flasks. Maintenance medium was the same basic composition, except the concentration of fetal calf serum was 2%. Vero cells (continuous line of green monkey kidney cells) were grown in the same manner as MRC-5 cells.
Cytotoxicity assays were performed in MRC-5 cells and in Vero cells. The test compound was dissolved in maintenance medium at selected concentrations and inoculated onto MRC-5 or Vero cells in 96 well tissue culture plates. Each concentration was inoculated in triplicate. The plates were incubated at 37°C in 5% CO2 and graded for cytotoxicity at 24,48 and 72 hours after inoculation. The highest concentration of compound showing 50% cytotoxicity after 72 hours was designated the end point.

Where a name gives a salt, the structure may show the parent alone.

Take `Nc1nc2c(ncn2COCCO)c(=O)[nH]1` [ACV, Acyclovir]: the “virus titer-day area under the curve (AUC)” value in data set [1] (therapy given 6 hr after viral inoculation, vs placebo, p 0.05) is recorded as “significantly reduced”. Besides, the “mean peak virus titer” value in data set [1] (therapy given 6 hr after viral inoculation, vs placebo, p <0.01) is “significantly reduced”. Besides, in data set [1] (therapy initiated 6 hr following HSV-2 inoculation, P <0.05 or less), the lesion development result is reported as “significantly decreased”. Further, the “mean peak lesion score” value in data set [1] (therapy initiated 6 hr following inoculation, P <0.001) is recorded as “reduced”.

Consider `O=C(O)c1cccnc1` [Niacin], for which the “concentrations tested at which the compound does not directly inactivate HSV-2” value in data set [2] was “up to 0.25%”. Moreover, the “inhibition of the replication of HSV-2 / antiviral activity” value in data set [3] (concentration not given) is “does not inhibit”. For the same compound, the “concentrations non-toxic in MRC-5 cells” value in data set [4] (human) was not above 0.25%.

As to `CCN(CC)CCOC(=O)c1ccc(N)cc1` [Procaine HCl, Procaine hydrochloride], in data set [5] (monkey), the “concentrations showing significant toxicity” value was “above 2.0%”. In data set [2], the “concentrations tested at which the compound does not directly inactivate HSV-2” value is reported as “up to 4%”. Further, the “concentrations unable to inhibit the replication of HSV-2” value in data set [3] (MOI 3.0, 24 hours post-infection, up to stated concentration) is “up to 2%”. For the same compound, the “inhibition of the replication of HSV-2 / antiviral activity” value in data set [3] (concentration not given) is “does not”. In data set [4] (human), the “concentrations exhibiting significant cytotoxicity” value is listed as “above 0.25%”.

Regarding `CCCCCCCCCCCCOS(=O)(=O)O` [SLS, sodium lauryl (or dodecyl) sulfate], the “direct inactivation of HSV-2” value in data set [2] (concentration of 0.00032%) was “No inactivation”. Further, the “inhibition of viral replication” value in data set [3] (0.0013%) and in data set [3] (0.0025%) was “does not inhibit” in each case. The “concentrations highly toxic to MRC-5 cells” value in data set [4] (MRC-5 cells, time not stated) is listed as “above 0.0025%”.

In the case of `CCCCNc1ccc(C(=O)OCCN(C)C)cc1` [Tetracaine HCl], in data set [5] (Vero cells, result in words), the “significant toxicity in Vero cells” value is “not in Vero cells”. For the same compound, in data set [2], the “concentrations tested at which the compound does not directly inactivate HSV-2” value was “up to 2%”. Besides, the “inhibition of the replication of HSV-2” value in data set [3] (0.25%) is given as “partially inhibited”. The “inhibition of the replication of HSV-2 / antiviral activity” value is on record as “partially inhibited” in data set [3] (0.5%, HCl) and “some antiviral activity” in data set [3] (0.5%, listed as tetracaine HCl, HCl). Also, the “concentrations exhibiting significant cytotoxicity” value in data set [4] (human) is “above 0.03%”.
